Tests used:
Histamine H3 receptor = Histamine H3 receptor (Homo sapiens, UniProt Q9Y5N1)
Prothrombin = Prothrombin (Homo sapiens, UniProt P00734); format: functional
[1] = target: Prostaglandin G/H synthase 1 (Homo sapiens, UniProt P23219); format: functional
[2] = target: T1, 5-hydroxytryptamine receptor 1A (Homo sapiens, UniProt P08908)
T1 sequence (P08908 whole entry): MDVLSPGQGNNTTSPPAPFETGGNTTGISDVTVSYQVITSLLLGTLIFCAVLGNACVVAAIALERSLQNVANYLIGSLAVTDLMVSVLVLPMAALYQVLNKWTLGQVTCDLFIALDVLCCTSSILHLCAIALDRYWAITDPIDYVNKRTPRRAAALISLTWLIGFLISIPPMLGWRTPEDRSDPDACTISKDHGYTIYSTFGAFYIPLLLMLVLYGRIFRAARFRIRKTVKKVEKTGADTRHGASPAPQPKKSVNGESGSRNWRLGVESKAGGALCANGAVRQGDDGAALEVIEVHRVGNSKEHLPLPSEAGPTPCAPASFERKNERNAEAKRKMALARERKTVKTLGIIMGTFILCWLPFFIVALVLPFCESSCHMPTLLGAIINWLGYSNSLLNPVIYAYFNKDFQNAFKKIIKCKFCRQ

[3] = target: T2, Alpha-2A adrenergic receptor (Homo sapiens, UniProt P08913)
T2 sequence (P08913 whole entry): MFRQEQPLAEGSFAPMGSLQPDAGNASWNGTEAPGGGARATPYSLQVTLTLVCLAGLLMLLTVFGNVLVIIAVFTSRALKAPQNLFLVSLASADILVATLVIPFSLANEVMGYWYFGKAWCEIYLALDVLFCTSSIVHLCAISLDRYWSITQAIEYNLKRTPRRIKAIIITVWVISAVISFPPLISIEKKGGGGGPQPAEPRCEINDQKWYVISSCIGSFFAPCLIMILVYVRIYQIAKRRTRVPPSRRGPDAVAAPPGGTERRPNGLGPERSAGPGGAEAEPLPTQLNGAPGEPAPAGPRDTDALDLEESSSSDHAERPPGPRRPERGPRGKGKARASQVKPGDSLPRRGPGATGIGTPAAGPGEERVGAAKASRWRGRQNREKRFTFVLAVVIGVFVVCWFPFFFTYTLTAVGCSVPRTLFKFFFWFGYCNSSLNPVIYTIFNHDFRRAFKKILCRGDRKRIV

[4] = target: T3, Muscarinic acetylcholine receptor M2 (Homo sapiens, UniProt P08172)
T3 sequence (P08172 whole entry): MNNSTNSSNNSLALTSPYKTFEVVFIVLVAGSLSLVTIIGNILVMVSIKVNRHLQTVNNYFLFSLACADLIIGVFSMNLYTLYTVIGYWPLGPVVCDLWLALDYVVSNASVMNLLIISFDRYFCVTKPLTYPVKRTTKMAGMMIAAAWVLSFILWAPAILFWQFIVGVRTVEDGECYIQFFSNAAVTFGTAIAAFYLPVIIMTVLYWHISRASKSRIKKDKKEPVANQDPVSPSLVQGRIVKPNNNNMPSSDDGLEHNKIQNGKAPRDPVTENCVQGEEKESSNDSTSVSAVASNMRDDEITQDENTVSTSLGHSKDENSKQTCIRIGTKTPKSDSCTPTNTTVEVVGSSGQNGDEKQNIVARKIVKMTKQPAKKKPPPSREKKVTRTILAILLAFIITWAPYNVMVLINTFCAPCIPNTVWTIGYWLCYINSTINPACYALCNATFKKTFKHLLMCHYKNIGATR

D(3) dopamine receptor = D(3) dopamine receptor (Homo sapiens, UniProt P35462)
D(3) dopamine receptor, sequence (P35462 whole entry): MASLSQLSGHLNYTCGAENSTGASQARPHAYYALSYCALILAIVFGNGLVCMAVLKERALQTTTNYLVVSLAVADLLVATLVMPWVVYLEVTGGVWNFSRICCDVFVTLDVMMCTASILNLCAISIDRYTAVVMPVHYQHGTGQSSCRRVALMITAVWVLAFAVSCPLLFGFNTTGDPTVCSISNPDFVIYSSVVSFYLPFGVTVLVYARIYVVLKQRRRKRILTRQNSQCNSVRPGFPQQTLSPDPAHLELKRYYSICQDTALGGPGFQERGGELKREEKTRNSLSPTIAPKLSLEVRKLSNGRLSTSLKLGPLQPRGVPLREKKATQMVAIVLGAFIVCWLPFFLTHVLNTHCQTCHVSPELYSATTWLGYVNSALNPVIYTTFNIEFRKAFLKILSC

[5] = target: Voltage-gated inwardly rectifying potassium channel KCNH2 (Homo sapiens, UniProt Q12809); format: functional
Voltage-gated inwardly rectifying potassium channel KCNH2, sequence (Q12809 whole entry): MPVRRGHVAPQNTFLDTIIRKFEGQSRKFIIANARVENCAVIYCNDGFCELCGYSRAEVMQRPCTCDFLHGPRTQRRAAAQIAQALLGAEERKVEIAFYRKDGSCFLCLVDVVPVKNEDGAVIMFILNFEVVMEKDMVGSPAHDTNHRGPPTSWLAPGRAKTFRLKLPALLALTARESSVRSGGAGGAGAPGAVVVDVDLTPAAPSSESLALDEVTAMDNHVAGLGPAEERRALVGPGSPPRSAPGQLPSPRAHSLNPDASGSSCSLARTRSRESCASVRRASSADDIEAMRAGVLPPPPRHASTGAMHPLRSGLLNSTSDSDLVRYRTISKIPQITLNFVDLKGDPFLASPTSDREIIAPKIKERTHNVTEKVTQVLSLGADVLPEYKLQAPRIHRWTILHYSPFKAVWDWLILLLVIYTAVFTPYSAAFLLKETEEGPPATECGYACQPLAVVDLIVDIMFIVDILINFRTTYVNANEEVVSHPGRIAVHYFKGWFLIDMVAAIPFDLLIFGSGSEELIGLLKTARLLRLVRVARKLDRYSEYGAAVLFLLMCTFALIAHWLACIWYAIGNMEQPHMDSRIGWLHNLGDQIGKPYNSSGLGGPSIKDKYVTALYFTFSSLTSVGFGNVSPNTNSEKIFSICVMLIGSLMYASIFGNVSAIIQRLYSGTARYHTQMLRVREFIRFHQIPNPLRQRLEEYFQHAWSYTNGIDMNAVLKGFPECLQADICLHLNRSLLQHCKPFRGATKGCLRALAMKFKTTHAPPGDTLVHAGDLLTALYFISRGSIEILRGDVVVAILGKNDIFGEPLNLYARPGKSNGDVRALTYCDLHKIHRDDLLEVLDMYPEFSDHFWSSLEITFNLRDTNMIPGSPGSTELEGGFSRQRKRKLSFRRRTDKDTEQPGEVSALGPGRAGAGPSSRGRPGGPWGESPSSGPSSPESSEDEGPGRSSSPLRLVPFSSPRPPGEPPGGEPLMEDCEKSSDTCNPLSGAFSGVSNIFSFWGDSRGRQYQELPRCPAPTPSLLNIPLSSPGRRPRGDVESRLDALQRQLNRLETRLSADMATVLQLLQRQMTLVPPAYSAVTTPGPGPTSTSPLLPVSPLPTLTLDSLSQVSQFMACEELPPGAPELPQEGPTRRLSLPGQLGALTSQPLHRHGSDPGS

Thromboxane A2 receptor [6] = target: T4, Thromboxane A2 receptor (Homo sapiens, UniProt P21731); format: functional, cell-based
T4 sequence (P21731 whole entry): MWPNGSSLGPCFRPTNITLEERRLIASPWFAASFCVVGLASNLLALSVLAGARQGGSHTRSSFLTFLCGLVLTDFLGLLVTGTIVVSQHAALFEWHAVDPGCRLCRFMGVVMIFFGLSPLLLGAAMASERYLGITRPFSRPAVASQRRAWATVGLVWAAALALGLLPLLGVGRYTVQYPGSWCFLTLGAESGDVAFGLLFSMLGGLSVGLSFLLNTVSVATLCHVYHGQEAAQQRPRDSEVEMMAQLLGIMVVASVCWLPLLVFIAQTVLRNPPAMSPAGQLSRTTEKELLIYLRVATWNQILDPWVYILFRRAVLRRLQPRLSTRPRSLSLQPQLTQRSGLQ

[7] = target: Sodium-dependent noradrenaline transporter (Homo sapiens, UniProt P23975)
Sodium-dependent noradrenaline transporter, sequence (P23975 whole entry): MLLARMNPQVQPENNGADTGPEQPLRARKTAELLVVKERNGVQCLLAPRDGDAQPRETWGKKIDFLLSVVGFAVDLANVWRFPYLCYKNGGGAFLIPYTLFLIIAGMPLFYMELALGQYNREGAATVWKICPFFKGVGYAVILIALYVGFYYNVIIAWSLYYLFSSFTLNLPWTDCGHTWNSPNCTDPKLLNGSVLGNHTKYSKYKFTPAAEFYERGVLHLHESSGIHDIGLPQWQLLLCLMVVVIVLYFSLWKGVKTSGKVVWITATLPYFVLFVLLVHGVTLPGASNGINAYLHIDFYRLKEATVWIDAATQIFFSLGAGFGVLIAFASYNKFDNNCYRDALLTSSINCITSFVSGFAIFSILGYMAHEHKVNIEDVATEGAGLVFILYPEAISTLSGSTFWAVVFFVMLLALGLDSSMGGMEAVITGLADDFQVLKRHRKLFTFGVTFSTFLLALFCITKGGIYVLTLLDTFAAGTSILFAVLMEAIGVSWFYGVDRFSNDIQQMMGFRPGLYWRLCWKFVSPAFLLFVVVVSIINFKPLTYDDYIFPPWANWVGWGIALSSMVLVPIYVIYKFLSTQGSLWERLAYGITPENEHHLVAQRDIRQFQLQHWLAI

D(1A) dopamine receptor = D(1A) dopamine receptor (Homo sapiens, UniProt P21728)
D(1A) dopamine receptor, sequence (P21728 whole entry): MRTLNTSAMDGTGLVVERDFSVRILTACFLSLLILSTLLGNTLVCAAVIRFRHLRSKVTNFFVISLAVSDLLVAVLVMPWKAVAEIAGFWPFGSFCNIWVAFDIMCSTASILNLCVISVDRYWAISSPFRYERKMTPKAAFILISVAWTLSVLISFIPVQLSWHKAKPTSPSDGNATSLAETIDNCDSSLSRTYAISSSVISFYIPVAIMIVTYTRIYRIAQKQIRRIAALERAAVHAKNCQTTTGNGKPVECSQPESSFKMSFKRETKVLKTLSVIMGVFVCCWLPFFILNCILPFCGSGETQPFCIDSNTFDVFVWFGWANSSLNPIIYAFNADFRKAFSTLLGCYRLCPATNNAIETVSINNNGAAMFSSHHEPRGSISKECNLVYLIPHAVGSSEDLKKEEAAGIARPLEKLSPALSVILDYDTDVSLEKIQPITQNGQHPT

Thromboxane A2 receptor [8] = target: T4, Thromboxane A2 receptor; format: functional, cell-based; remark: listed apart in the source
[9] = target: T5, Alpha-1A adrenergic receptor (Homo sapiens, UniProt P35348); format: functional, cell-based
T5 sequence (P35348 whole entry): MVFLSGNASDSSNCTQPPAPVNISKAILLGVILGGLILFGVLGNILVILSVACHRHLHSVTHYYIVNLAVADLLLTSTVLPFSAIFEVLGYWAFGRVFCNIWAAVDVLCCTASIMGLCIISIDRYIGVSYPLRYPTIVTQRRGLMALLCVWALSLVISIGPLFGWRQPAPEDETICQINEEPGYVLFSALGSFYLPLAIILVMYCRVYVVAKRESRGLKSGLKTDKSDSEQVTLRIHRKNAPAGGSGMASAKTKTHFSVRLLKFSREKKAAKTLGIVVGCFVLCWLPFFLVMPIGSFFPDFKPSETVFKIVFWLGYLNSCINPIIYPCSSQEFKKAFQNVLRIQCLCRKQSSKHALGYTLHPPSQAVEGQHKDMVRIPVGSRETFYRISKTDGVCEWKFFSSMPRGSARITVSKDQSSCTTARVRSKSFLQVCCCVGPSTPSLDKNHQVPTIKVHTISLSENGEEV
Also: assay procedure not described here.

Histamine H3 receptor, sequence (Q9Y5N1 whole entry): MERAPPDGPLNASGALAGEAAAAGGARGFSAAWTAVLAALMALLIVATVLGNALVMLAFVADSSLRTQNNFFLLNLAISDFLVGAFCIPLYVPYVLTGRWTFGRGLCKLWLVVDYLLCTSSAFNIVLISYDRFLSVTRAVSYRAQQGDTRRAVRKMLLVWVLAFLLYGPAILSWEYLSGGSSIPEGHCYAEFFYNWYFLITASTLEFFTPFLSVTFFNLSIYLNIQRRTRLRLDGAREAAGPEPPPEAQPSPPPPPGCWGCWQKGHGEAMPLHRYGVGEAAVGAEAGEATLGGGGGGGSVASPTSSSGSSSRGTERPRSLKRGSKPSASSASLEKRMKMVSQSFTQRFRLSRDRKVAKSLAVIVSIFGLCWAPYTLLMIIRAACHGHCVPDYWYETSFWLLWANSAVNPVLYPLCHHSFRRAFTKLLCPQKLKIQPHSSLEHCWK
Prostaglandin G/H synthase 1, sequence (P23219 whole entry): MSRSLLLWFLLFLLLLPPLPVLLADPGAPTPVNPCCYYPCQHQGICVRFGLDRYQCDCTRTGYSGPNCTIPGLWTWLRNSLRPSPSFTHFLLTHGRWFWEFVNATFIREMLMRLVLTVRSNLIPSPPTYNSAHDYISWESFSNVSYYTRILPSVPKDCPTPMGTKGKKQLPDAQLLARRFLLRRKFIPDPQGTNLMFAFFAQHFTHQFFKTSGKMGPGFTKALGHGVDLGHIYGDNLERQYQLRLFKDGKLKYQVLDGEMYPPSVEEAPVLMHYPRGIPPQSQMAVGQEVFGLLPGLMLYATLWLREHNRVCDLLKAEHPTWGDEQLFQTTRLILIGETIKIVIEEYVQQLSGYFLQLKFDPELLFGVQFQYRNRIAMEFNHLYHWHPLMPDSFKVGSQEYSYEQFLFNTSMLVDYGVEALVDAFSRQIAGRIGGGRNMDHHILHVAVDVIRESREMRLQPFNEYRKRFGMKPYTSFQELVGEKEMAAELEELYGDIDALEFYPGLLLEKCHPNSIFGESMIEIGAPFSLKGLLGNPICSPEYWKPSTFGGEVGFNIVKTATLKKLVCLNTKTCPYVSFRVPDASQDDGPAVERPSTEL

Row | SMILES | AC50 (Histamine H3 receptor) [µM] | AC50 (Prothrombin) [µM] | AC50 [1] [µM] | AC50 [2] [µM] | AC50 [3] [µM] | AC50 [4] [µM] | AC50 (D(3) dopamine receptor) [µM] | AC50 [5] [µM] | AC50 (Thromboxane A2 receptor [6]) [µM] | AC50 [7] [µM] | AC50 (D(1A) dopamine receptor) [µM] | AC50 (Thromboxane A2 receptor [8]) [µM] | AC50 [9] [µM]
1 | CC[C@@H]1C[C@]1(NC(=O)[C@@H]1C[C@@H]2CN1C(=O)[C@H](C(C)(C)C)NC(=O)OCC(C)(C)CCCCc1cccc3c1CN(C3)C(=O)O2)C(=O)NS(=O)(=O)C1CC1 | > 30 | > 30 | > 30 | > 30 | > 30 | > 30 | > 30 | > 30 | 29.5 | > 30 | > 30 | > 3 | 29.7
2 | CC(=O)NCCCCCC(=O)O [ACEXAMIC ACID] | > 30 | > 30 | > 30 | > 30 | > 30 | > 30 | > 30 | > 30 | > 30 | > 30 | > 30 | > 30 | 18.9
3 | C=C(C)CNc1ccc(C(C)C(=O)O)cc1 (centres undefined) [ALMINOPROFEN] | > 30 | > 30 | > 30 | > 30 | > 30 | > 30 | > 30 | > 30 | > 30 | > 30 | > 30 | > 30 | > 30
4 | C[C@H]1CN(C[C@H](Cc2ccccc2)C(=O)NCC(=O)O)CC[C@@]1(C)c1cccc(O)c1 [ALVIMOPAN] | > 30 | > 30 | > 3 | > 30 | > 30 | > 30 | > 30 | > 30 | > 30 | > 30 | > 30 | > 30 | > 30
5 | C[N+](C)(C)CCOP(=O)(O)OP(=O)([O-])OC[C@H]1O[C@@H](n2ccc(N)nc2=O)[C@H](O)[C@@H]1O [CITICOLINE] | > 30 | > 30 | > 30 | > 30 | > 30 | > 30 | > 30 | > 30 | > 30 | > 30 | > 30 | > 30 | > 30
6 | C[C@H]1O[C@@H](O[C@H]2CC[C@@]3(C)[C@H](CC[C@@H]4[C@@H]3C[C@@H](O)[C@]3(C)[C@@H](C5=CC(=O)OC5)CC[C@]43O)C2)C[C@H](O)[C@@H]1O[C@H]1C[C@H](O)[C@H](O[C@H]2C[C@H](O)[C@H](O[C@@H]3O[C@H](CO)[C@@H](O)[C@H](O)[C@H]3O)[C@@H](C)O2)[C@@H](C)O1 [DESLANOSIDE] | > 30 | > 30 | > 30 | > 30 | > 30 | > 30 | > 30 | > 30 | > 30 | > 30 | > 30 | > 30 | > 30
7 | CC[C@H]1OC(=O)[C@H](C)[C@@H](O[C@H]2C[C@@](C)(OC)[C@@H](O)[C@H](C)O2)[C@H](C)[C@@H](O[C@@H]2O[C@H](C)C[C@H](N(C)C)[C@H]2O)[C@](C)(O)C[C@@H](C)[C@@H]2N[C@@H](COCCOC)O[C@H]([C@H]2C)[C@]1(C)O [DIRITHROMYCIN] | > 30 | > 30 | > 30 | > 30 | > 30 | > 30 | > 30 | > 30 | > 30 | > 30 | > 30 | > 30 | > 30
8 | O=C(O)Cc1ccccc1Oc1ccc(Cl)cc1Cl [FENCLOFENAC] | > 30 | > 30 | > 30 | > 30 | > 30 | > 30 | > 30 | > 30 | > 30 | > 30 | > 30 | > 30 | > 30
9 | CC(C(=O)O)c1cccc(Oc2ccccc2)c1 (centres undefined) [FENOPROFEN] | > 30 | > 30 | 13.5 | > 30 | > 30 | > 30 | > 30 | > 30 | > 30 | > 30 | > 30 | > 30 | > 30
10 | CC1(C)O[C@@H]2C[C@H]3[C@@H]4C[C@H](F)C5=CC(=O)C=C[C@]5(C)[C@@]4(F)[C@@H](O)C[C@]3(C)[C@]2(C(=O)CO)O1 [FLUOCINOLONE ACETONIDE] | > 30 | > 30 | > 30 | > 30 | > 30 | > 30 | > 30 | > 30 | > 30 | > 30 | > 30 | > 30 | > 30
11 | O=C(O)P(=O)(O)O [FOSCARNET] | > 30 | > 30 | > 30 | > 30 | > 30 | > 30 | > 30 | > 30 | > 30 | > 30 | > 30 | > 30 | > 30
12 | Cc1ccc(C)c(OCCCC(C)(C)C(=O)O)c1 [GEMFIBROZIL] | > 30 | > 30 | > 30 | > 30 | > 30 | > 30 | > 30 | > 30 | > 30 | > 30 | > 30 | > 30 | > 30
13 | COc1ccccc1OC1(C)OC(=O)c2ccccc2O1 (centres undefined) [GUAIMESAL] | > 30 | > 30 | > 30 | > 30 | > 30 | > 30 | > 30 | > 30 | > 30 | > 30 | > 30 | > 30 | > 30

Reference: ChEMBL document CHEMBL5291721, “A preclinical secondary pharmacology resource illuminates target-adverse drug reaction associations of marketed drugs” (Nat Commun, 2023)
